Assay results taken from PubChem BioAssay AID1259407 (Chemical Carcinogenesis Research Information System (CCRIS), 2018).
Active and inactive are the calls of the source. How the calls were made is not given here.

Tested on: CCRIS mutagenicity, Ames/micronucleus/aberration tests
Experiment: CCRIS mutagenicity studies
[1] = Test System: AMES SALMONELLA TYPHIMURIUM, Strain/Indicator: TA98, Metabolic Activation: NONE, Method: PREINCUBATION
[2] = Test System: AMES SALMONELLA TYPHIMURIUM, Strain/Indicator: TA100, Metabolic Activation: NONE, Method: PREINCUBATION
[3] = Test System: AMES SALMONELLA TYPHIMURIUM, Strain/Indicator: TA1535, Metabolic Activation: NONE, Method: PREINCUBATION

Measured: mutagenic call

N#CC(Br)Br
inactive: End Point: In vivo micronucleus, Test System: Peripheral blood normochromatic erythrocytes, Species: Mouse, Strain/Sex: B6C3F1/ Female, Route: Oral inactive; negative | End Point: In vivo micronucleus, Test System: Peripheral blood normochromatic erythrocytes, Species: Mouse, Strain/Sex: B6C3F1/ Male, Route: Oral inactive; negative | Test System: AMES SALMONELLA TYPHIMURIUM, Strain/Indicator: TA98, Metabolic Activation: NONE, Method: STANDARD PLATE inactive; negative | Test System: AMES SALMONELLA TYPHIMURIUM, Strain/Indicator: TA98, Metabolic Activation: RAT, LIVER, S-9, AROCLOR 1254, Method: STANDARD PLATE inactive; negative | Test System: AMES SALMONELLA TYPHIMURIUM, Strain/Indicator: TA100, Metabolic Activation: NONE, Method: FLUCTUATION TEST inactive; negative | Test System: AMES SALMONELLA TYPHIMURIUM, Strain/Indicator: TA100, Metabolic Activation: NONE, Method: STANDARD PLATE inactive; negative | Test System: AMES SALMONELLA TYPHIMURIUM, Strain/Indicator: TA100, Metabolic Activation: RAT, LIVER, S-9, AROCLOR 1254, Method: FLUCTUATION TEST inactive; negative | Test System: AMES SALMONELLA TYPHIMURIUM, Strain/Indicator: TA100, Metabolic Activation: RAT, LIVER, S-9, AROCLOR 1254, Method: STANDARD PLATE inactive; negative | Test System: AMES SALMONELLA TYPHIMURIUM, Strain/Indicator: TA1535, Metabolic Activation: NONE, Method: STANDARD PLATE inactive; negative | Test System: AMES SALMONELLA TYPHIMURIUM, Strain/Indicator: TA1535, Metabolic Activation: RAT, LIVER, S-9, AROCLOR 1254, Method: STANDARD PLATE inactive; negative | Test System: Ames Salmonella typhimurium, Strain/Indicator: TA97, Metabolic Activation: Hamster, Liver, S-9, Aroclor 1254 (30%), Method: Preincubation inactive; negative | Test System: Ames Salmonella typhimurium, Strain/Indicator: TA97, Metabolic Activation: Rat, Liver, S-9, Aroclor 1254 (30%), Method: Preincubation inactive; negative | Test System: Ames Salmonella typhimurium, Strain/Indicator: TA98, Metabolic Activation: Hamster, Liver, S-9, Aroclor 1254 (10%), Method: Preincubation inactive; negative | Test System: Ames Salmonella typhimurium, Strain/Indicator: TA98, Metabolic Activation: Hamster, Liver, S-9, Aroclor 1254 (10 and 30%), Method: Preincubation inactive; negative | Test System: Ames Salmonella typhimurium, Strain/Indicator: TA98, Metabolic Activation: None, Method: Preincubation inactive; negative | Test System: Ames Salmonella typhimurium, Strain/Indicator: TA98, Metabolic Activation: Rat, Liver, S-9, Aroclor 1254 (10%), Method: Preincubation inactive; negative | Test System: Ames Salmonella typhimurium, Strain/Indicator: TA98, Metabolic Activation: Rat, Liver, S-9, Aroclor 1254 (10 and 30%), Method: Preincubation inactive; negative | Test System: Ames Salmonella typhimurium, Strain/Indicator: TA100, Metabolic Activation: Hamster, Liver, S-9, Aroclor 1254 (30%), Method: Preincubation inactive; negative | Test System: Ames Salmonella typhimurium, Strain/Indicator: TA100, Metabolic Activation: Rat, Liver, S-9, Aroclor 1254 (10%), Method: Preincubation inactive; negative | Test System: Ames Salmonella typhimurium, Strain/Indicator: TA1535, Metabolic Activation: None, Method: Preincubation inactive; negative | Test System: Ames Salmonella typhimurium, Strain/Indicator: TA1535, Metabolic Activation: Rat, Liver, S-9, Aroclor 1254 (30%), Method: Preincubation inactive; negative | Test System: Ames Salmonella typhimurium, Strain/Indicator: TA1537, Metabolic Activation: Hamster, Liver, S-9, Aroclor 1254 (30%), Method: Preincubation inactive; negative | Test System: Ames Salmonella typhimurium, Strain/Indicator: TA1537, Metabolic Activation: None, Method: Preincubation inactive; negative | Test System: Ames Salmonella typhimurium, Strain/Indicator: TA1537, Metabolic Activation: Rat, Liver, S-9, Aroclor 1254 (10%), Method: Preincubation inactive; negative | Test System: Ames Salmonella typhimurium, Strain/Indicator: TA1538, Metabolic Activation: None, Method: Preincubation inactive; negative | Test System: E. coli, Strain/Indicator: WPM uvrA/pKM101, Metabolic Activation: None, Method: Preincubation inactive; negative | Test System: E. coli, Strain/Indicator: WPM uvrA/pKM101, Metabolic Activation: Rat, Liver, S-9, Aroclor 1254 (10%), Method: Preincubation inactive; negative
active: Test System: Ames Salmonella typhimurium, Strain/Indicator: TA97, Metabolic Activation: Hamster, Liver, S-9, Aroclor 1254 (10%), Method: Preincubation active; positive | Test System: Ames Salmonella typhimurium, Strain/Indicator: TA97, Metabolic Activation: None, Method: Preincubation active; positive | Test System: Ames Salmonella typhimurium, Strain/Indicator: TA97, Metabolic Activation: Rat, Liver, S-9, Aroclor 1254 (10%), Method: Preincubation active; positive | Test System: E. coli, Strain/Indicator: WPM uvrA/pKM101, Metabolic Activation: Hamster, Liver, S-9, Aroclor 1254 (10%), Method: Preincubation active; positive

CCC(O)CN (stereo not drawn)
inactive: Test System: AMES SALMONELLA TYPHIMURIUM, Strain/Indicator: TA97, Metabolic Activation: HAMSTER, LIVER, S-9, AROCLOR 1254 (10 OR 30%), Method: PREINCUBATION inactive; negative | Test System: AMES SALMONELLA TYPHIMURIUM, Strain/Indicator: TA97, Metabolic Activation: NONE, Method: PREINCUBATION inactive; negative | Test System: AMES SALMONELLA TYPHIMURIUM, Strain/Indicator: TA97, Metabolic Activation: RAT, LIVER, S-9, AROCLOR 1254 (10 OR 30%), Method: PREINCUBATION inactive; negative | Test System: AMES SALMONELLA TYPHIMURIUM, Strain/Indicator: TA98, Metabolic Activation: HAMSTER, LIVER, S-9, AROCLOR 1254 (10 OR 30%), Method: PREINCUBATION inactive; negative | [1] inactive; negative | Test System: AMES SALMONELLA TYPHIMURIUM, Strain/Indicator: TA98, Metabolic Activation: RAT, LIVER, S-9, AROCLOR 1254 (10 OR 30%), Method: PREINCUBATION inactive; negative | Test System: AMES SALMONELLA TYPHIMURIUM, Strain/Indicator: TA100, Metabolic Activation: HAMSTER, LIVER, S-9, AROCLOR 1254 (10 OR 30%), Method: PREINCUBATION inactive; negative | [2] inactive; negative | Test System: AMES SALMONELLA TYPHIMURIUM, Strain/Indicator: TA100, Metabolic Activation: RAT, LIVER, S-9, AROCLOR 1254 (10 OR 30%), Method: PREINCUBATION inactive; negative | Test System: AMES SALMONELLA TYPHIMURIUM, Strain/Indicator: TA1535, Metabolic Activation: HAMSTER, LIVER, S-9, AROCLOR 1254 (10 OR 30%), Method: PREINCUBATION inactive; negative | [3] inactive; negative | Test System: AMES SALMONELLA TYPHIMURIUM, Strain/Indicator: TA1535, Metabolic Activation: RAT, LIVER, S-9, AROCLOR 1254 (10 OR 30%), Method: PREINCUBATION inactive; negative

c1cnc2c(c1)ccc1c3cccnc3ccc12
active: Test System: AMES SALMONELLA TYPHIMURIUM, Strain/Indicator: TA100, Metabolic Activation: POOLED HUMAN LIVER MICROSOMES, Method: PREINCUBATION active; positive | Test System: AMES SALMONELLA TYPHIMURIUM, Strain/Indicator: TA100, Metabolic Activation: RAT, LIVER, S-9, PHENOBARBITAL AND 5,6-BENZOFLAVONE, Method: PREINCUBATION active; positive | Test System: LACZ TRANSGENIC MOUSE (MUTATM MOUSE), Strain/Indicator: LACZ MUTANT FREQUENCY, Method: LIVER, SPLEEN, LUNG, KIDNEY, BONE MARROW, COLON HARVESTED 7 D AFTER LAST DOSE, DNA ISOLATED active; positive; g:c to t:a transversions in all organs

Cc1ccc(NC(N)=O)cc1
inactive: Test System: AMES SALMONELLA TYPHIMURIUM, Strain/Indicator: TA98, Metabolic Activation: HAMSTER, LIVER, S-9, AROCLOR 1254 (10%), Method: PREINCUBATION inactive; negative | [1] inactive; negative | Test System: AMES SALMONELLA TYPHIMURIUM, Strain/Indicator: TA98, Metabolic Activation: RAT, LIVER, S-9, AROCLOR 1254 (10%), Method: PREINCUBATION inactive; negative | Test System: AMES SALMONELLA TYPHIMURIUM, Strain/Indicator: TA100, Metabolic Activation: HAMSTER, LIVER, S-9, AROCLOR 1254 (10%), Method: PREINCUBATION inactive; negative | [2] inactive; negative | Test System: AMES SALMONELLA TYPHIMURIUM, Strain/Indicator: TA100, Metabolic Activation: RAT, LIVER, S-9, AROCLOR 1254 (10%), Method: PREINCUBATION inactive; negative | Test System: AMES SALMONELLA TYPHIMURIUM, Strain/Indicator: TA1535, Metabolic Activation: HAMSTER, LIVER, S-9, AROCLOR 1254 (10%), Method: PREINCUBATION inactive; negative | [3] inactive; negative | Test System: AMES SALMONELLA TYPHIMURIUM, Strain/Indicator: TA1535, Metabolic Activation: RAT, LIVER, S-9, AROCLOR 1254 (10%), Method: PREINCUBATION inactive; negative | Test System: AMES SALMONELLA TYPHIMURIUM, Strain/Indicator: TA1537, Metabolic Activation: HAMSTER, LIVER, S-9, AROCLOR 1254 (10%), Method: PREINCUBATION inactive; negative | Test System: AMES SALMONELLA TYPHIMURIUM, Strain/Indicator: TA1537, Metabolic Activation: NONE, Method: PREINCUBATION inactive; negative | Test System: AMES SALMONELLA TYPHIMURIUM, Strain/Indicator: TA1537, Metabolic Activation: RAT, LIVER, S-9, AROCLOR 1254 (10%), Method: PREINCUBATION inactive; negative
